Source: paper PMC12892976, “Alkylation-based optimization of antifungal FPPS inhibitors yields a potent, broad-spectrum lipophilic zoledronate derivative” (mBio, 2025)
≈ marks a conversion by molar mass, not a printed value. Where two headings read alike, the source gives them in different places.

How the values were obtained:
Type in all cases: cell-based
eight fungal species = assay: checkerboard interaction with azoles, summary across the eight species
Source text: Synergy between lipophilic FPPS inhibitors and azole antifungals was investigated by determining the fractional inhibitory concentration index (FICI) (Fig. 2; Table S1 Fig. S1) ([17]). […]. Derivatives PLA9 and 11, and PDA9, 11, and 12 antagonized azoles in C. albicans, C. neoformans, and C. deuterogattii, yet were largely synergistic in C. glabrata and S. cerevisiae. […].

Saccharomyces cerevisiae [1] = assay: checkerboard drug interaction (FICI, MICc); parameters: INH MICc / INH MICc (ITR:INH) / INH MICc (KET:INH) / INH MICc (FLC:INH): unit not given beside the values; settings: for INH FD (MIC-MICc fold decrease): fold decrease of inhibitor MIC;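 for all read-outs here: simplified diagonal checkerboard screen pairing antifungals with FPPS inhibitors, FICI calculated under the Loewe additivity model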
HEK-293T cells = assay: MTT reduction cytotoxicity assay; settings: Homo sapiens
Saccharomyces cerevisiae [2] = assay: MIC/MFC broth microdilution (CLSI); settings: Saccharomyces cerevisiae S288c
Protocol: Antifungal susceptibility was determined by broth microdilution according to the CLSI guidelines described in M27-Ed4 ([16]). […] MFC was determined by back-plating drug-treated cultures from MIC broths onto SDA plates. The MFC was defined as the lowest concentration from which no colonies could be cultured.

Candida tropicalis = assay: checkerboard drug interaction (FICI, MICc);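 note: simplified diagonal checkerboard screen of antifungal plus FPPS inhibitor combinations, with FICI computed by the Loewe additivity model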
Protocol: (§1) Drug interactions between antifungals and FPPS inhibitors were investigated using a simplified checkerboard diagonal screening method ([45]). […] FICIs were determined according to the Loewe additivity model ([17]).

Cryptococcus neoformans = assay: checkerboard drug interaction (FICI, MICc); settings: for INH FD (MIC-MICc fold decrease): fold decrease of inhibitor MIC;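 for all read-outs here: antifungal plus FPPS inhibitor pairs tested against Cryptococcus neoformans by simplified diagonal checkerboard screening, FICI computed under the Loewe additivity model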
Protocol: as §1

Aspergillus fumigatus = assay: checkerboard drug interaction (FICI, MICc); settings: for INH FD (MIC-MICc fold decrease): fold decrease of inhibitor MIC;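 for all read-outs here: simplified diagonal checkerboard screen pairing antifungals with FPPS inhibitors against Aspergillus fumigatus, with FICI calculated under the Loewe additivity model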
Protocol: as §1

Aspergillus flavus = assay: checkerboard drug interaction (FICI, MICc); parameters: INH MICc (KET:INH) / INH MICc (FLC:INH): unit not given beside the values;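 note: simplified diagonal checkerboard screen pairing azole antifungals with FPPS inhibitors, FICI calculated under the Loewe additivity model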
[3] = S. cerevisiae, FLC:INH combination
[4] = S. cerevisiae, ITR:INH combination
[5] = S. cerevisiae, KET:INH combination
[6] = C. neoformans, FLC:INH combination
[7] = C. neoformans, ITR:INH combination
[8] = C. neoformans, KET:INH combination
[9] = A. fumigatus, FLC:INH combination
[10] = A. fumigatus, ITR:INH combination
[11] = A. fumigatus, KET:INH combination

O=P(O)(O)C(O)(Cn1ccnc1)P(=O)(O)O [ZOL, zoledronate]
antagonism with azole drugs (eight fungal species; any of the azole drugs in any species tested): no antagonism | GM fungal MICc (eight fungal species; geometric mean MIC in combination with azoles): 14.3 | FICI (Saccharomyces cerevisiae [1]; 5FC:ZOL): 1.25 | FICI (Saccharomyces cerevisiae [1]; AMB:ZOL): 2.5 | FICI (Saccharomyces cerevisiae [1]; CAS:ZOL): 1.01 | FICI (Saccharomyces cerevisiae [1]; FLC:ZOL): 0.38 | FICI (Saccharomyces cerevisiae [1]; ITR:ZOL): 0.5 | FICI (Saccharomyces cerevisiae [1]; KET:ZOL): 0.25 | FICI (Saccharomyces cerevisiae [1]; [3]): 0.38 | FLC MICc (Saccharomyces cerevisiae [1]; S. cerevisiae, FLC:INH combination, MIC of FLC in combination with the inhibitor): 1 | INH MICc (Saccharomyces cerevisiae [1]; S. cerevisiae, FLC:INH combination, MIC of the inhibitor in combination with FLC): 32 | FLC FD (MIC-MICc fold decrease) (Saccharomyces cerevisiae [1]; S. cerevisiae, FLC:INH combination, fold decrease of FLC MIC): 4 | INH FD (MIC-MICc fold decrease) (Saccharomyces cerevisiae [1]; [3]): 8 | FICI (Saccharomyces cerevisiae [1]; [4]): 0.5 | ITR MICc (Saccharomyces cerevisiae [1]; S. cerevisiae, ITR:INH combination, MIC of ITR in combination with the inhibitor): 0.063 | INH MICc (Saccharomyces cerevisiae [1]; S. cerevisiae, ITR:INH combination, MIC of the inhibitor in combination with ITR): 64 | ITR FD (MIC-MICc fold decrease) (Saccharomyces cerevisiae [1]; S. cerevisiae, ITR:INH combination, fold decrease of ITR MIC): 4 | INH FD (MIC-MICc fold decrease) (Saccharomyces cerevisiae [1]; [4]): 4 | FICI (Saccharomyces cerevisiae [1]; [5]): 0.25 | KET MICc (Saccharomyces cerevisiae [1]; S. cerevisiae, KET:INH combination, MIC of KET in combination with the inhibitor): 0.25 | INH MICc (Saccharomyces cerevisiae [1]; S. cerevisiae, KET:INH combination, MIC of the inhibitor in combination with KET): 32 | KET FD (MIC-MICc fold decrease) (Saccharomyces cerevisiae [1]; S. cerevisiae, KET:INH combination, fold decrease of KET MIC): 8 | INH FD (MIC-MICc fold decrease) (Saccharomyces cerevisiae [1]; [5]): 8 | FICI (Saccharomyces cerevisiae [1]; VOR:ZOL): 0.75 | bisphosphonate MICc (Saccharomyces cerevisiae [1]; ZOL with 5FC): 64 | bisphosphonate MICc (Saccharomyces cerevisiae [1]; ZOL with AMB): 128 | bisphosphonate MICc (Saccharomyces cerevisiae [1]; ZOL with CAS): 2 | bisphosphonate MICc (Saccharomyces cerevisiae [1]; ZOL with FLC): 32 | bisphosphonate MICc (Saccharomyces cerevisiae [1]; ZOL with ITR): 64 | bisphosphonate MICc (Saccharomyces cerevisiae [1]; ZOL with KET): 32 | bisphosphonate MICc (Saccharomyces cerevisiae [1]; ZOL with VOR): 64 | FICI (Saccharomyces cerevisiae [1]; with FLC, Saccharomyces cerevisiae): 0.38 | FICI (Saccharomyces cerevisiae [1]; with ITR, Saccharomyces cerevisiae): 0.50 | FICI (Saccharomyces cerevisiae [1]; with KET, Saccharomyces cerevisiae): 0.25 | IC50 (HEK-293T cells; HEK-293T, read-out: HEK IC50): > 256 µg/mL | IC50 (HEK-293T cells; HEK-293T cells, projected value, read-out: predicted IC50): > 256 µg/mL | MFC (Saccharomyces cerevisiae [2]): > 128 µg/mL | MIC (Saccharomyces cerevisiae [2]): > 128 µg/mL | MIC / MEC (Saccharomyces cerevisiae [2]): 256 µg/mL (≈ 941 µM) | FICI (Candida tropicalis; 5FC:ZOL): 0.75 | FICI (Candida tropicalis; AMB:ZOL): 2 | FICI (Candida tropicalis; CAS:ZOL): 0.4 | FICI (Candida tropicalis; FLC:ZOL): 0.31 | FICI (Candida tropicalis; ITR:ZOL): 0.31 | FICI (Candida tropicalis; KET:ZOL): 0.31 | FICI (Candida tropicalis; VOR:ZOL): 0.49 | bisphosphonate MICc (Candida tropicalis; ZOL with 5FC): 64 | bisphosphonate MICc (Candida tropicalis; ZOL with AMB): 128 | bisphosphonate MICc (Candida tropicalis; ZOL with CAS): 8 | bisphosphonate MICc (Candida tropicalis; ZOL with FLC): 32 | bisphosphonate MICc (Candida tropicalis; ZOL with ITR): 16 | bisphosphonate MICc (Candida tropicalis; ZOL with KET): 32 | bisphosphonate MICc (Candida tropicalis; ZOL with VOR): 1 | FICI (Cryptococcus neoformans; 5FC:ZOL): 0.75 | FICI (Cryptococcus neoformans; AMB:ZOL): 2.25 | FICI (Cryptococcus neoformans; [6]): 0.38 | INH MICc (Cryptococcus neoformans; C. neoformans, FLC:INH combination, MIC of the inhibitor in combination with FLC): 8 | FLC FD (MIC-MICc fold decrease) (Cryptococcus neoformans; C. neoformans, FLC:INH combination, fold decrease of FLC MIC): 4 | INH FD (MIC-MICc fold decrease) (Cryptococcus neoformans; [6]): 8 | FICI (Cryptococcus neoformans; [7]): 0.19 | INH MICc (Cryptococcus neoformans; C. neoformans, ITR:INH combination, MIC of the inhibitor in combination with ITR): 4 | ITR FD (MIC-MICc fold decrease) (Cryptococcus neoformans; C. neoformans, ITR:INH combination, fold decrease of ITR MIC): 8 | INH FD (MIC-MICc fold decrease) (Cryptococcus neoformans; [7]): 16 | FICI (Cryptococcus neoformans; [8]): 0.19 | INH MICc (Cryptococcus neoformans; C. neoformans, KET:INH combination, MIC of the inhibitor in combination with KET): 4 | KET FD (MIC-MICc fold decrease) (Cryptococcus neoformans; C. neoformans, KET:INH combination, fold decrease of KET MIC): 8 | INH FD (MIC-MICc fold decrease) (Cryptococcus neoformans; [8]): 16 | FICI (Cryptococcus neoformans; CAS:ZOL): ≥4 | FICI (Cryptococcus neoformans; FLC:ZOL): 0.38 | FICI (Cryptococcus neoformans; ITR:ZOL): 0.19 | FICI (Cryptococcus neoformans; KET:ZOL): 0.19 | FICI (Cryptococcus neoformans; VOR:ZOL): 0.98 | bisphosphonate MICc (Cryptococcus neoformans; ZOL with 5FC): 16 | bisphosphonate MICc (Cryptococcus neoformans; ZOL with AMB): 8 | bisphosphonate MICc (Cryptococcus neoformans; ZOL with CAS): 128 | bisphosphonate MICc (Cryptococcus neoformans; ZOL with FLC): 8 | bisphosphonate MICc (Cryptococcus neoformans; ZOL with ITR): 4 | bisphosphonate MICc (Cryptococcus neoformans; ZOL with KET): 4 | bisphosphonate MICc (Cryptococcus neoformans; ZOL with VOR): 16 | FICI (Cryptococcus neoformans; with FLC, Cryptococcus neoformans): 0.38 | FICI (Cryptococcus neoformans; with ITR, Cryptococcus neoformans): 0.19 | FICI (Cryptococcus neoformans; with KET, Cryptococcus neoformans): 0.19 | FICI (Aspergillus fumigatus; 5FC:ZOL): 2 | FICI (Aspergillus fumigatus; [9]): 0.75 | FLC MICc (Aspergillus fumigatus; A. fumigatus, FLC:INH combination, MIC of FLC in combination with the inhibitor): 64 | INH MICc (Aspergillus fumigatus; A. fumigatus, FLC:INH combination, MIC of the inhibitor in combination with FLC): 64 | FLC FD (MIC-MICc fold decrease) (Aspergillus fumigatus; A. fumigatus, FLC:INH combination, fold decrease of FLC MIC): 2 | INH FD (MIC-MICc fold decrease) (Aspergillus fumigatus; [9]): 4 | FICI (Aspergillus fumigatus; [10]): 0.51 | ITR MICc (Aspergillus fumigatus; A. fumigatus, ITR:INH combination, MIC of ITR in combination with the inhibitor): 0.063 | INH MICc (Aspergillus fumigatus; A. fumigatus, ITR:INH combination, MIC of the inhibitor in combination with ITR): 2 | ITR FD (MIC-MICc fold decrease) (Aspergillus fumigatus; A. fumigatus, ITR:INH combination, fold decrease of ITR MIC): 2 | INH FD (MIC-MICc fold decrease) (Aspergillus fumigatus; [10]): 128 | FICI (Aspergillus fumigatus; [11]): 0.75 | KET MICc (Aspergillus fumigatus; A. fumigatus, KET:INH combination, MIC of KET in combination with the inhibitor): 2 | INH MICc (Aspergillus fumigatus; A. fumigatus, KET:INH combination, MIC of the inhibitor in combination with KET): 64 | KET FD (MIC-MICc fold decrease) (Aspergillus fumigatus; A. fumigatus, KET:INH combination, fold decrease of KET MIC): 2 | INH FD (MIC-MICc fold decrease) (Aspergillus fumigatus; [11]): 4 | FICI (Aspergillus fumigatus; AMB:ZOL): 1.03 | FICI (Aspergillus fumigatus; CAS:ZOL): 0.75 | FICI (Aspergillus fumigatus; FLC:ZOL): 0.75 | FICI (Aspergillus fumigatus; ITR:ZOL): 0.51 | FICI (Aspergillus fumigatus; KET:ZOL): 0.75 | FICI (Aspergillus fumigatus; VOR:ZOL): 0.75 | bisphosphonate MICc (Aspergillus fumigatus; ZOL with 5FC): 512 | bisphosphonate MICc (Aspergillus fumigatus; ZOL with AMB): 16 | bisphosphonate MICc (Aspergillus fumigatus; ZOL with CAS): 128 | bisphosphonate MICc (Aspergillus fumigatus; ZOL with FLC): 64 | bisphosphonate MICc (Aspergillus fumigatus; ZOL with ITR): 2 | bisphosphonate MICc (Aspergillus fumigatus; ZOL with KET): 128 | bisphosphonate MICc (Aspergillus fumigatus; ZOL with VOR): 64 | FICI (Aspergillus fumigatus; with FLC, Aspergillus fumigatus): 0.75 | FICI (Aspergillus fumigatus; with ITR, Aspergillus fumigatus): 0.51 | FICI (Aspergillus fumigatus; with KET, Aspergillus fumigatus): 0.75 | FICI (Aspergillus flavus; 5FC:ZOL): 2 | FICI (FLC:INH) (Aspergillus flavus; A. flavus, Fractional Inhibitory Concentration Index, fluconazole + inhibitor): 0.63 | FICI (ITR:INH) (Aspergillus flavus; A. flavus, Fractional Inhibitory Concentration Index, itraconazole + inhibitor): 1.13 | FICI (KET:INH) (Aspergillus flavus; A. flavus, Fractional Inhibitory Concentration Index, ketoconazole + inhibitor): 1.5 | INH MICc (FLC:INH) (Aspergillus flavus; A. flavus, MIC of the inhibitor in combination with fluconazole): 32 | INH MICc (ITR:INH) (Aspergillus flavus; A. flavus, MIC of the inhibitor in combination with itraconazole): 32 | INH MICc (KET:INH) (Aspergillus flavus; A. flavus, MIC of the inhibitor in combination with ketoconazole): 128 | FLC FD (FLC:INH) (Aspergillus flavus; A. flavus, MIC-MICc fold decrease of fluconazole, negative = increase): 2 | ITR FD (ITR:INH) (Aspergillus flavus; A. flavus, MIC-MICc fold decrease of itraconazole, negative = increase): 1 | KET FD (KET:INH) (Aspergillus flavus; A. flavus, MIC-MICc fold decrease of ketoconazole, negative = increase): 1 | INH FD (FLC:INH) (Aspergillus flavus; A. flavus, MIC-MICc fold decrease of the inhibitor, with fluconazole): 8 | INH FD (ITR:INH) (Aspergillus flavus; A. flavus, MIC-MICc fold decrease of the inhibitor, with itraconazole): 8 | INH FD (KET:INH) (Aspergillus flavus; A. flavus, MIC-MICc fold decrease of the inhibitor, with ketoconazole): 2 | FICI (Aspergillus flavus; AMB:ZOL): 0.63 | FICI (Aspergillus flavus; CAS:ZOL): 1 | FICI (Aspergillus flavus; FLC:ZOL): 0.56 | FICI (Aspergillus flavus; ITR:ZOL): 1.06 | FICI (Aspergillus flavus; KET:ZOL): 1.25 | FICI (Aspergillus flavus; VOR:ZOL): 1 | bisphosphonate MICc (Aspergillus flavus; ZOL with 5FC): 512 | bisphosphonate MICc (Aspergillus flavus; ZOL with AMB): 64 | bisphosphonate MICc (Aspergillus flavus; ZOL with CAS): 256 | bisphosphonate MICc (Aspergillus flavus; ZOL with FLC): 32 | bisphosphonate MICc (Aspergillus flavus; ZOL with ITR): 32 | bisphosphonate MICc (Aspergillus flavus; ZOL with KET): 128 | bisphosphonate MICc (Aspergillus flavus; ZOL with VOR): 256 | FICI (Aspergillus flavus; with FLC, Aspergillus flavus): 0.63 | FICI (Aspergillus flavus; with ITR, Aspergillus flavus): 1.13 | FICI (Aspergillus flavus; with KET, Aspergillus flavus): 1.50
